# Measurements from US10280179B2, “Spiroquinoxaline derivatives as inhibitors of non-apoptotic regulated cell-death” (Helmholtz Zentrum Munchen—Deutches Forschungszentrum Fur …, priority 2013, dated 2019).
# Where two headings read alike, the source gives them in different places.
# How the values were obtained:
# [1] = tested on: mouse hippocampal cell line (Ht22); experiment: Inhibition of glutamate-induced non-apoptotic cell death (Example B.2); assay type: cell-based; conditions: HT-22, Ht22 cells
# Summary of the method: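 Ht22 cells (2,000/well, DMEM/10% FBS) seeded together with 5 mM glutamate and compound (0.5 pM to 100 μM, triplicate), incubated 72 h at 37 °C/5% CO2. Cell survival then quantified; glutamate alone as negative control, alpha-tocopherol as positive control.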
# SH-SY5Y cells = experiment: TNF-alpha-induced apoptosis, specificity for non-apoptotic cell death (Example B.3); assay type: cell-based, human; conditions: compound 1 μM, TNF-alpha 10 ng/mL, FIG. 1
# Method: SH-SY5Y cells were propagated and seeded in 96-well plates, together with compound N-1, N-2, N-10 of Table 1-N (FIG. 1(a)), compound O/S-6 or O/S-3 of Table 1-O/S (FIG. 1(b)), or compound C-12, C-91, or C-205 of Table 1-C (FIG. 1(c)) (each 1 μM) and TNF-alpha was added (final concentration: 10 ng/mL) to induce apoptosis. The apoptosis and pan-caspase inhibitor z-vad (final concentration: 50 μM) and the necroptosis inhibitor Necrostatin-1 (Nec-1; final concentration: 5 μM) were used for comparison. Control wells were established with vehicle only (DMSO), with and without treatment with TNF-alpha to induce apoptosis. Cells were incubated, and cell survival was detected and quantified. Percentage cell survival after TNF-alpha-induced apoptosis is shown (error bars indicate standard deviation (SD)).
# Briefly, SH-SY5Y cells were propagated and seeded in 96-well plates, together with the compound to be tested (1 μM), generally as described in Example B.1, except they were seeded at 1,000 cell/well and instead of BSO, TNF-alpha (Invitrogen) was added to a final concentration of 10 ng/mL to induce apoptosis. The apoptosis and pan-caspase inhibitor Z-VAD-fmk (Enzo Life Science; final concentration 50 μM) and the necroptosis inhibitor Necrostatin-1 (Nec-1; Enzo Life Science; final concentration 5 μM) were used for comparison. Control wells were established with vehicle only (DMSO), with and without treatment with TNF-alpha to induce apoptosis. Cells were incubated, and cell survival was detected and quantified as described in Example B.1.
# [2] = tested on: human neuroblastoma cell line SH-SY5Y; experiment: Inhibition of BSO-induced non-apoptotic cell death (Example B.1); assay type: cell-based; conditions: SH-SY5Y cells, 72 hours
# Summary of the method: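 SH-SY5Y cells exposed to 50 μM BSO together with compound (0.5 pM–100 μM, triplicate) for 72 h at 37°C, 5% CO2. Survival measured by AquaBluer fluorescence (ex 530–560/em 590 nm), normalised to percent surviving cells, and IC50 derived.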
# C57BL/6 mice = experiment: Liver ischemia-reperfusion injury animal model (Example C.1); assay type: in vivo, mouse; conditions: liver IRI (90 min ischemia, 24 h reperfusion), single i.p. dose 10 mg/Kg, compared to vehicle control
# Method: FIG. 2: Efficacy of a compound of the invention in an animal model of liver IRI. […] The “Sham” bar represents the data from control animals that were treated to the same protocol but without atraumatic clipping. Errors shown are SEM. Significant differences are seen between IRI+vehicle compared to IRI+Cmpd, as well as between IRI+vehicle compared to Sham+vehicle.
# Briefly, to test such utility of compounds disclosed herein, ischemia is induced in the liver of 6-8 week old C57BL/6 mice (Charles River) by midline laparotomy whereby the blood supply to the left and median lobes of the liver is interrupted via atraumatic clipping for 90 min, followed by reperfusion for a period of 24 h. After reperfusion, but prior to final abdominal closure, animals are treated with a single i.p. dose of the compound to be tested (10 mg/Kg), or with vehicle (DMSO) as negative control. Markers to be investigated for IRI of liver include liver parameters from serum (ALT/GPT, AST/GOT, Bilirubin, Urea), histopathological analysis and rtPCR of inflammatory and non-apoptotic cell death markers (such as TNF-alpha and INF-gamma). […] The “Sham” bar represents the data from control animals that were treated to the same protocol but without atraumatic clipping.
# [3] = Cellular toxicity, same assay as Example B.4 without TAM (Example B.5); assay type: cell-based; conditions: mouse; Pfa1 cells without TAM; read-out: TC50 (the source's name)
# Description: Cellular Toxicity of Compounds of the Invention
# An estimate of the toxicity for compounds of the invention was obtained by using the same assay as described in Example B.4, but without the addition of TAM. […] Such TC50 values obtained for certain compounds disclosed herein, together with an approximate therapeutic window (estimated by dividing each TC50 by the corresponding IC50 determined from example B.4) are shown in Table 3.
compound,measurement,setting,value
Clc1cccc(CNC2=Nc3ccccc3NC23CCNCC3)c1 [N-2],IC50,"[1]; glutamate 5 mM, 72 hours, cell survival, read-out: Ht22/GLU (Example B.2) IC50",~10 nM
same,IC50,"[1]; glutamate-induced cell death, read-out: Ht22/GLU",< 200 nM
same,Percentage cell survival after TNF-alpha-induced apoptosis,SH-SY5Y cells,Non-inhibition of apoptotic cell-death
same,IC50,"[2]; 50 μM BSO, read-out: SH-SY5Y/BSO IC50",< 20 nM
same,IC50,"[2]; BSO 50 μM, cell survival (AquaBluer), read-out: SH-SY5Y/BSO (Example B.1) IC50",2.81 nM
same,serum marker for liver cell damage GPT,C57BL/6 mice; FIG. 2(a),significant reduction
same,serum marker for liver cell damage GOT,C57BL/6 mice; FIG. 2(b),significant reduction
same,CC50,[3],5000 to 10000 nM
